Tests used:
[1] = system: PPARα target gene (ACO and CPT-1) expression; test: PPARα target gene (ACO and CPT-1) expression by quantitative RT-PCR in Hepa 1-6 cells; format: cell-based; settings: Hepa 1-6 mouse hepatoma cells, 24 h, serum-free DMEM
Protocol: RT-PCR gene expression analysis and binding assays were employed to address this objective. Wy14,643, 16:0/18:1-GPC, and 18:1/16:0-GPC on PPARα target gene (ACO and CPT-1) expression was measured by quantitative RT-PCR in Hepa 1-6 cells treated for 24 h as in FIG. 6A. Results are mean±SEM of 9 separate experiments. *, P<0.05 compared to control (Ctrl, 80% PBS/20% DMSO).
The C57BL/6 mouse hepatoma cell line Hepa 1-6 (ATCC, CRL-1830) was expanded in DMEM with 10% fetal bovine serum. For experiments, cells were cultured to 50-60% confluence, washed twice with PBS, and the medium was changed to serum-free DMEM supplemented with the various types and concentrations of phosphatidylcholine (sonicated to homogeneity in PBS/1% ethanol/4% fatty acid-free BSA), Wy14,643 (dissolved in 80% PBS/20% DMSO), or vehicle-only solutions. 24 h later, cells were washed, RNA prepared, and ACO and CPT-1 expression levels were determined by quantitative RT-PCR (see FIG. 6). For siRNA experiments, 50-60% confluent cells were treated with siRNAs or their scrambled controls (all diluted in PBS) for 72 h. Following the 72 h siRNA treatment, another set of cells received 16:0/18:1-GPC (using a concentration based on dose-response experiments) for an additional 24 h. Stealth™ siRNA oligonucleotides were used to inhibit the gene expression of mouse ChPT1 ([…]) (SEQ ID NO: 1) and CEPT1 ([…]) (SEQ ID NO: 2) were from Invitrogen (Carlsbad, Calif.).
Total RNA was extracted from Hepa 1-6 cells and liver using Trizol (Invitrogen) and treated with DNase I (RNase-free, Roche Molecular Biochemicals). Reverse transcription to cDNA and real-time quantitative PCR were performed using previously published procedures and primer-probe sequences for ACO and CPT-1 (Chakravarthy et al., 2005). […] Relative mRNA levels were calculated using both the comparative CT and standard curve methods normalized to ribosomal protein L32, an invariant internal control. […]

hepatic steatosis = test: Portal vein infusion, liver fat / triglyceride content in zero fat diet and fasting fatty liver model; format: in vivo, mouse
[2] = biological target: T1, PPARα ligand binding domain (LBD) (Homo sapiens, UniProt Q07869); test: ALPHASCREEN binding assay, PPARα ligand binding domain
T1 construct: 6xHis; made in house
T1 sequence (Q07869 239-466 limits assumed): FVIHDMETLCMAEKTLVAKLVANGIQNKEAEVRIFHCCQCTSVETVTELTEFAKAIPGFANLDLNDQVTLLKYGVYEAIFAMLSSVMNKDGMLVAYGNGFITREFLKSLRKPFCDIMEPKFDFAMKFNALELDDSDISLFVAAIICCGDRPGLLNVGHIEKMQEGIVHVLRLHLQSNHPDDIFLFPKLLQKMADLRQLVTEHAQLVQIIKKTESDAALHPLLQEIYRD
Protocol: Binding of 16:0/18:1-GPC and known agonists to the ligand binding domain (LBD) of PPARα in the presence of various peptide motifs was determined by ALPHASCREEN™ assay (Proc Natl Acad Sci USA 105, pp. 5034-5039, 2008). Experiments used 100 nM receptor LBD, purified as 6× His tag fusion proteins (Mol Cell 17, pp. 491-502, 2005), and 20 nM of N-terminal biotinylated CBP1 peptide or other coactivator peptides in the presence of 5 μg/ml donor and acceptor beads in 50 mM MOPS (pH 7.4), 100 mM NaCl, and 0.1 mg/ml BSA for 90 min at 25° C. Signals were generated in the absence or the presence of ligand. Identical experiments were performed using the PPARδ and PPARγ LBDs.
Stealth™ siRNA oligonucleotides were used to inhibit the gene expression of mouse ChPT1 ([…]) (SEQ ID NO: 1) and CEPT1 ([…]) (SEQ ID NO: 2) were from Invitrogen (Carlsbad, Calif.). […] Expression of ACO and CPT-1 was also assessed 24 h after addition of 50 μM 16:0/18:1-GPC in a subset of Hepa 1-6 cells previously treated with CEPT1 siRNA. mRNA levels are normalized to control L32 ribosomal mRNA. […] FIGS. 6F-H show the binding of various peptide motifs to the purified PPARα (FIG. 6F), PPARδ (FIG. 6G), and PPARγ (FIG. 6H) LBD in the presence of 5 μM of the corresponding PPAR agonist or 16:0/18:1-GPC as measured by AlphaScreen assays. […]

CCCCCCCC/C=C\CCCCCCCC(=O)O[C@H](COC(=O)CCCCCCCCCCCCCCC)COP(=O)([O-])OCC[N+](C)(C)C [16:0/18:1-GPC, 1-palmitoyl-2-oleoyl-sn-glycerol-3-phosphocholine]
expression of PPARα-dependent genes ACO and CPT-I [1]: induces PPARα-dependent gene expression | expression of PPARα-dependent genes ACO and CPT-I ([1]; listed as 1-palmitoyl-2-oleoyl-sn-glycerol-3-phosphocholine): increased expression of both ACO and CPT-I to a similar degree as equimolar amounts of the known PPARα activator Wy14,643 | liver lipid content (hepatic steatosis; PPARα-deficient mice, 10 mg/kg intraportal three times a day, 5 days ZFD, 24 h fast): unaffected | liver fat content (hepatic steatosis; control (C57/BL6) mice, 10 mg/kg intraportal three times a day, 5 days ZFD, 24 h fast, vs vehicle): decreased | effect of intraperitoneal administration (hepatic steatosis; intraperitoneal route, preliminary results (data not shown)): no effect | binding affinity to PPARα compared with Wy14,643 [2]: binds with sufficient affinity to PPARα comparable to Wy14,643
